Like-named read-outs stand apart in the source and are kept apart here.
Tested on: HIV-1 (NL4-3 strain)
Experiment: Assay for inhibition of HIV replication (ViKinG; infected MT4-GFP cells)
Type: cell-based
Procedure: Assay for inhibition of HIV replication
MT4-GFP cells (250,000 cells/ml) were bulk-infected with HIV-1 (NL4-3 strain) at low multiplicity of infection (MOI) in RPMI+10% FBS for 24 hours. […] Test compounds were serial-diluted in DMSO on ECHO. The infected MT4-GFP cells were added to a 384-well poly-D-lysine coated black plate with clear bottom in which the diluted test compounds were placed. The cells were seeded at 8,000 cells per well and the final DMSO concentration was 0.4%. The infected cells (Green GFP cells) were quantified at both 24 and 48 hours post incubation using Acumen eX3. Viral reproductive ratio (R0) was determined using the number of infected cells at 48 hours divided by the number of infected cells at 24 hours. Percent viral growth inhibition was calculated by [1−(R−Rtripledrug)/(RDMSO−Rtripledrug)]*100. Compound potency IP or IC50 was determined by a 4-parameter dose response curve analysis.

[1] = Human immunodeficiency virus 1, NL43, MT4-GFP cells infected with HIV-1 NL4-3, 0% normal human serum (NHS), read-out: ViKinG IP (nM) with 0% NHS
[2] = Human immunodeficiency virus 1, NL43, MT4-GFP cells infected with HIV-1 NL4-3, 10% normal human serum (NHS), read-out: ViKinG IP (nM) with 10% NHS
[3] = Human immunodeficiency virus 1, NL43, MT4-GFP cells infected with HIV-1 NL4-3, 100% normal human serum (NHS), read-out: ViKinG IP (nM) with 100% NHS
[4] = MT4-GFP cells infected with HIV-1 NL4-3, 0% normal human serum (NHS), read-out: ViKinG IP (nM) with 0% NHS
[5] = MT4-GFP cells infected with HIV-1 NL4-3, 100% normal human serum (NHS), read-out: ViKinG IP (nM) with 100% NHS
[6] = MT4-GFP cells infected with HIV-1 NL4-3, 10% normal human serum (NHS), read-out: ViKinG IP (nM) with 10% NHS

SMILES | IC50 [1] [nM] | IC50 [2] [nM] | IC50 [3] [nM] | further results
COC(=O)[C@@]12C[C@@H]1CCC21N(C)C(=O)c2c(O)c(=O)c(-c3nnc(Cc4ccc(F)cc4F)s3)cn2N1C (mixture of isomers) [Compound 199] | 5.42 | 13.9 | 202 | –
CN1C(=O)c2c(O)c(=O)c(-c3nnc(Cc4ccc(F)cc4F)s3)cn2N(C)C12CC[C@@H]1C[C@@]12CO (mixture of isomers) [Compound 200] | – | – | – | IC50 [4]: 2.04 nM; IC50 [5]: 66.7 nM
CN1n2cc(-c3nnc(Cc4ccc(F)cc4F)s3)c(=O)c(O)c2C(=O)NC12CC[C@H]1C[C@H]12 (mixture of isomers) [Compound 201] | 3.82 | – | 575 | –
COCCN1C(=O)c2c(O)c(=O)c(-c3nnc(Cc4ccc(F)cc4F)s3)cn2N(C)C12CC[C@H]1C[C@H]12 (mixture of isomers) [Compound 202] | 8.36 | 1180 | – | –
COC(=O)[C@@]12C[C@@H]1CCC21NC(=O)c2c(O)c(=O)c(-c3nnc(Cc4ccc(F)cc4F)s3)cn2N1C (mixture of isomers) [Compound 204] | 2.81 | 9.04 | 146 | –
CCN1C(=O)c2c(O)c(=O)c(-c3nnc(Cc4ccc(F)cc4F)s3)cn2N(C)C1C(C)(C)C (racemic) [Compound 16] | – | 57 | 1030 | –
CCN1C(=O)c2c(O)c(=O)c(-c3nnc(Cc4ccc(F)cc4F)s3)cn2N(C)C1C1(C)CC1 (racemic) [Compound 17] | – | 138 | 4070 | –
CCN1C(=O)c2c(O)c(=O)c(-c3nnc(Cc4ccc(F)cc4F)s3)cn2N(C)C1c1cccc(OC)n1 (racemic) [Compound 18] | – | 38.7 | 1190 | –
CCN1C(=O)c2c(O)c(=O)c(-c3nnc(Cc4ccc(F)cc4F)s3)cn2N(C)C1CC(C)=O (racemic) [Compound 40] | 2.53 | 374 | – | –
CCN1C(=O)c2c(O)c(=O)c(-c3nnc(Cc4ccc(F)cc4F)s3)cn2N(C)C12CCCc1sccc12 (racemic) [Compound 42] | 92.5 | 321 | – | –
CCN1C(=O)c2c(O)c(=O)c(-c3nnc(Cc4ccc(F)cc4F)s3)cn2N(C)C12CCCC(=O)C2 (racemic) [Compound 43] | 40.7 | 275 | – | –
CCN1C(=O)c2c(O)c(=O)c(-c3nnc(Cc4ccc(F)cc4F)s3)cn2N(C)C12CCCCC(=O)C2 (racemic) [Compound 44] | 4.36 | – | 240 | –
CCN1C(=O)c2c(O)c(=O)c(-c3nnc(Cc4ccc(F)cc4F)s3)cn2N(C)C1c1ccc(F)c(OC)c1 (racemic) [Compound 48] | 19.6 | – | 416 | –
CC1=CCC2(CC1)N(C)C(=O)c1c(O)c(=O)c(-c3nnc(Cc4ccc(F)cc4F)s3)cn1N2C (racemic) [Compound 71] | 16.1 | 49.5 | – | –
CN1C(=O)c2c(O)c(=O)c(-c3nnc(Cc4ccc(F)cc4F)s3)cn2N(C)C12CCCc1occc12 (racemic) [Compound 78] | 10.7 | 93 | – | –
CN1C2CCCN2C(=O)c2c(O)c(=O)c(-c3nnc(Cc4ccc(F)cc4F)s3)cn21 (racemic) [Compound 155] | – | 48.7 | 304 | –
CN1C2CCCCCN2C(=O)c2c(O)c(=O)c(-c3nnc(Cc4ccc(F)cc4F)s3)cn21 (racemic) [Compound 159] | – | 121 | – | –
CN1C2COCCN2C(=O)c2c(O)c(=O)c(-c3nnc(Cc4ccc(F)cc4F)s3)cn21 (racemic) [Compound 160] | – | 22.6 | 298 | –
CN1n2cc(-c3nnc(Cc4ccc(F)cc4F)s3)c(=O)c(O)c2C(=O)N2CCCC21CO (racemic) [Compound 163] | 8.22 | – | 499 | –
CCN1C(=O)c2c(O)c(=O)c(-c3nnc(Cc4ccc(F)cc4)s3)cn2N(C)C1C1CC1 (racemic) [Compound 217] | – | 66 | 1020 | –
CCN1C(=O)c2c(O)c(=O)c(-c3nnc(Cc4ccc(F)cc4)s3)cn2N(C)C1C1CCOCC1 (racemic) [Compound 219] | – | 26.9 | – | –
CCN1C(=O)c2c(O)c(=O)c(-c3nnc(Cc4ccc(F)cc4)s3)cn2N(C)C1(C)COC (racemic) [Compound 223] | – | – | 369 | –
CCN1C(=O)c2c(O)c(=O)c(-c3nnc(Cc4ccc(F)cc4)s3)cn2N(C)C1(C)C [Compound 5] | – | 31 | 936 | –
CCN1C(=O)c2c(O)c(=O)c(-c3nnc(Cc4ccc(F)cc4)s3)cn2N(C)C1c1ccn[nH]1 (stereo not drawn) [Compound 6] | – | 30.8 | 357 | –
CCO[C@H]1CC[C@@]2(CC1)N(CC)C(=O)c1c(O)c(=O)c(-c3nnc(Cc4ccc(F)cc4F)s3)cn1N2C [Compound 9] | 5.06 | – | 141 | –

SMILES | IC50 [1] [nM] | IC50 [2] [nM] | IC50 [3] [nM] | further results
CCN1C(=O)c2c(O)c(=O)c(-c3nnc(Cc4ccc(F)cc4)s3)cn2N(C)C12CC(O)C2 (stereo not drawn) [Compound 11] | – | 231 | 4200 | –
CN1C(=O)c2c(O)c(=O)c(-c3nnc(Cc4ccc(F)cc4)s3)cn2N(C)C12CCC(O)CC2 (stereo not drawn) [Compound 13] | – | – | – | IC50 [4]: 23.8 nM; IC50 [6]: 86.9 nM; IC50 [5]: 862 nM
CN1C(=O)c2c(O)c(=O)c(-c3nnc(Cc4ccc(F)cc4)s3)cn2N(C)C12CCC(O)CC2 (stereo not drawn) [Compound 14] | – | – | – | IC50 [4]: 5.37 nM; IC50 [6]: 18.8 nM; IC50 [5]: 198 nM
CCN1C(=O)c2c(O)c(=O)c(-c3nnc(Cc4ccc(F)cc4F)s3)cn2N(C)C1(C)C [Compound 15] | 3.49 | 57.9 | 971 | –
CCN1C(=O)c2c(O)c(=O)c(-c3nnc(Cc4ccc(F)cc4F)s3)cn2N(C)C12CCC(C(=O)OC)C2 (stereo not drawn) [Compound 19] | – | 22.8 | 314 | –
CCN1C(=O)c2c(O)c(=O)c(-c3nnc(Cc4ccc(F)cc4F)s3)cn2N(C)C12CCC(CC(=O)OC)C2 (stereo not drawn) [Compound 20] | – | 28.7 | 218 | –
CCN1C(=O)c2c(O)c(=O)c(-c3nnc(Cc4ccc(F)cc4F)s3)cn2N(C)C12CCC(CC(=O)OC)CC2 (stereo not drawn) [Compound 21] | – | 31.8 | – | –
CCN1C(=O)c2c(O)c(=O)c(-c3nnc(Cc4ccc(F)cc4F)s3)cn2N(C)C12CCC1(CCC(=O)N1)CC2 (stereo not drawn) [Compound 22] | – | 292 | – | –
CCN1C(=O)c2c(O)c(=O)c(-c3nnc(Cc4ccc(F)cc4F)s3)cn2N(C)C12CCC1(CCC(=O)N1)CC2 (stereo not drawn) [Compound 23] | – | – | – | IC50 [6]: 466 nM
CCN1C(=O)c2c(O)c(=O)c(-c3nnc(Cc4ccc(F)cc4F)s3)cn2N(C)C12CCC(NS(C)(=O)=O)CC2 (stereo not drawn) [Compound 24] | – | 185 | 1040 | –
CCOP(=O)(OCC)C1CCCC2(C1)N(CC)C(=O)c1c(O)c(=O)c(-c3nnc(Cc4ccc(F)cc4F)s3)cn1N2C (stereo not drawn) [Compound 25] | – | 40.5 | – | –
CCN1C(=O)c2c(O)c(=O)c(-c3nnc(Cc4ccc(F)cc4F)s3)cn2N(C)C12CCC(OC)CC2 (stereo not drawn) [Compound 26] | – | 9.22 | 115 | IC50 [4]: 2.83 nM
CCN1C(=O)c2c(O)c(=O)c(-c3nnc(Cc4ccc(F)cc4F)s3)cn2N(C)C12CCC(OC)CC2 (stereo not drawn) [Compound 27] | – | – | – | IC50 [4]: 9.24 nM; IC50 [6]: 11.5 nM; IC50 [5]: 191 nM
CCN1C(=O)c2c(O)c(=O)c(-c3nnc(Cc4ccc(F)cc4F)s3)cn2N(C)C12CC[C@H](C(=O)OC)[C@H](C)C2 (stereo partly drawn) [Compound 30] | – | – | – | IC50 [6]: 13.1 nM
CCN1C(=O)c2c(O)c(=O)c(-c3nnc(Cc4ccc(F)cc4F)s3)cn2N(C)C12CC[C@H](C(=O)OC)[C@H](C)C2 (stereo partly drawn) [Compound 31] | – | – | – | IC50 [6]: 32.2 nM
CCN1C(=O)c2c(O)c(=O)c(-c3nnc(Cc4ccc(F)cc4F)s3)cn2N(C)C12CC[C@@H](C(=O)OC)[C@H](C)C2 (stereo partly drawn) [Compound 32] | – | 21.1 | – | –
CCN1C(=O)c2c(O)c(=O)c(-c3nnc(Cc4ccc(F)cc4F)s3)cn2N(C)C12CC[C@@H](C(=O)OC)[C@H](C)C2 (stereo partly drawn) [Compound 33] | – | – | – | IC50 [6]: 29 nM
CCN1C(=O)c2c(O)c(=O)c(-c3nnc(Cc4ccc(F)cc4F)s3)cn2N(C)C12CCC(c1n[nH]c(=O)o1)CC2 (stereo not drawn) [Compound 34] | – | 23.6 | 180 | –
CCOC(=O)C1CC2(CC1(C)C)N(CC)C(=O)c1c(O)c(=O)c(-c3nnc(Cc4ccc(F)cc4F)s3)cn1N2C (stereo not drawn) [Compound 35] | – | 100 | – | –
CCN1C(=O)c2c(O)c(=O)c(-c3nnc(Cc4ccc(F)cc4F)s3)cn2N(C)C12C[C@H]1CC(CC(=O)OC)C[C@H]1C2 (stereo partly drawn) [Compound 36] | – | 52.6 | – | –
CCOP(=O)(OCC)C1CCC2(C1)N(CC)C(=O)c1c(O)c(=O)c(-c3nnc(Cc4ccc(F)cc4F)s3)cn1N2C (stereo not drawn) [Compound 37] | – | – | 186 | IC50 [6]: 18.2 nM
CCOP(=O)(OCC)C1CCC2(C1)N(CC)C(=O)c1c(O)c(=O)c(-c3nnc(Cc4ccc(F)cc4F)s3)cn1N2C (stereo not drawn) [Compound 38] | – | – | – | IC50 [6]: 95.4 nM
CCN1C(=O)c2c(O)c(=O)c(-c3nnc(Cc4ccc(F)cc4F)s3)cn2N(C)C12CC[C@@H]1C[C@@H]12 (stereo partly drawn) [Compound 39] | 0.213 | 77.7 | – | –
CCN1C(=O)c2c(O)c(=O)c(-c3nnc(Cc4ccc(F)cc4F)s3)cn2N(C)C1CC(C)O (stereo not drawn) [Compound 41] | 3.15 | 73.2 | – | –
CCN1C(=O)c2c(O)c(=O)c(-c3nnc(Cc4ccc(F)cc4F)s3)cn2N(C)C12CCCCC(O)C2 (stereo not drawn) [Compound 45] | 4.07 | – | 122 | –

— patent US9714243B2, “4-pyridinonetriazine derivatives as HIV integrase inhibitors” (Merck Sharp & Dohme Corp., priority 2012, dated 2017)
